From patent US8318792B2, “Therapeutic agent for amyotrophic lateral sclerosis” (Nippon Medical School Foundation, priority 2006, dated 2012)

Tested on: G1H-G93A transgenic mice
Test: Histopathological study: number of spinal cord anterior horn cells
Format: in vivo, mouse
Conditions: end stage; for difference to placebo group in number of spinal cord anterior horn cells (cervical, thoracic or lumbar segment): P>0.05, Mann-Whitney's U test; for number of spinal cord anterior horn cells in the cervical segment / number of spinal cord anterior horn cells in the lumbar segment / number of spinal cord anterior horn cells in the thoracic segment: per five HE sections, average±SD
Description: The mouse supplied to the experiment is anesthetized by intraperitoneal injection of pentobarbital sodium in an amount of 1 mL per kg of the mouse body weight. After confirming that the mouse is completely under anesthesia, laparotomy and thoracotomy are performed, and blood is completely removed from the visceral organs of the whole body by perfusion of physiological saline at 37° C. via the left ventricle and aorta. The complete removal of blood from the visceral organs of the whole body is carried out by confirming complete removal of the blood of the aorta in the thoracic part and abdominal part, mesenteric arteries, liver, kidneys, and small arteries on the surfaces of the stomach, small intestine and large intestine under direct visual inspection. Subsequently, perfusion of 50 mL of physiological saline at 37° C. is performed. Immediately thereafter, the perfusion is performed with a fixative (4% paraformaldehyde supplemented with 0.1 M cacodylate buffer, pH 7.4). The spinal cord is removed and re-fixed with the same fixative for 18 hours. After the fixation of spinal cord tissue, each spinal cord segments is cut out to examine the spinal cord tissue. For the detailed analyses of spinal cord tissues, two segments of the cervical spinal cord (upper and lower cervical segments), three segments of the thoracic spinal cord (upper, middle, and lower thoracic segments), and two segments of lumbar spinal cord (upper and lower lumbar segments) were cut out to provide seven segments in total. Each spinal cord segments are respectively embedded in paraffin to produce paraffin blocks, and then cut into paraffin sections having a thickness of 5 μm using a microtome. The paraffin sections are subjected to hematoxylin and eosin (HE) staining.
For a quantitative analysis, serial 25 paraffin sections having a thickness of 5 μm were produced in series from the respective segment paraffin blocks of the spinal cord, and the 1st section, 7th section, 13th section, 19th section and 25th section were selected and subjected to HE staining. Specifically, paraffin sections were selected such that one paraffin section was taken at a […], and 5 HE preparations were produced from a single spinal cord segments. Therefore, 10 HE preparations from two areas for the entire cervical spinal cord, 15 HE preparations from three areas for the entire thoracic spinal cord, and 10 HE preparations from two areas for the entire lumbar spinal cord, were produced.
In order to calculate the number of motor neurons in the anterior horn, all of the HE stained sections were observed under a light microscope (BX41: Olympus Corp., Tokyo, Japan) equipped with a 3CCD digital color camera system for the microscope (FX380: Olympus Corp., Tokyo, Japan). Subsequently, photographs of the anterior horn region (corresponding to VII, VIII and IX Rexed areas) in the HE stained sections of the respective myelomere tissues of the spinal cord were taken, and the images were analyzed using an image analysis-filing software (FLVFS-LS Ver. 1.12: Olympus Corp., Tokyo, Japan). In regard to the definition of the motor neuron in the anterior horn of spinal cord (spinal cord anterior horn cells), cells in the HE stained sections, which have a nucleus carrying a definite nucleolus and contain a cell body having a diameter of 25 μm or more, were selected as the spinal cord anterior horn cells (Klivenyi P, et al., Nature Med 1999; 5:347-351, Kong J & Xu Z, J Neurosci 1998; 18:3241-3250, and Stephens B, et al., Neuropathol Appl Neurobiol 2001; 27:352-361). Based on this definition, the number of spinal cord anterior horn cells was counted for each of the HE stained sections. The respective numbers of spinal cord anterior horn cells in the cervical spinal cord, thoracic spinal cord and lumbar spinal cord of one mouse was calculated from the total number of spinal cord anterior horn cells in five HE stained sections. […]

[1] = 5 mg/kg oral daily from 80th day after birth (before onset)
[2] = 5 mg/kg oral daily from the day of onset (after onset)

SMILES | difference to placebo group in number of spinal cord anterior horn cells (cervical, thoracic or lumbar segment) [1] | difference to placebo group in number of spinal cord anterior horn cells (cervical, thoracic or lumbar segment) [2] | number of spinal cord anterior horn cells in the cervical segment [1] | number of spinal cord anterior horn cells in the lumbar segment [1] | number of spinal cord anterior horn cells in the thoracic segment [1] | number of spinal cord anterior horn cells in the cervical segment [2] | number of spinal cord anterior horn cells in the lumbar segment [2] | number of spinal cord anterior horn cells in the thoracic segment [2]
CC(C)(C)COc1ccc(-n2cc(C(=O)O)cn2)cc1C#N [compound (a), 1-[3-cyano-4-(2,2-dimethylpropoxy)phenyl]-1H-pyrazole-4-carboxylic acid] | no significant difference | no significant difference | 3.3±3.1 | 3.7±3.3 | 1.6±2.1 | 4.8±3.7 | 4.1±4.4 | 2.3±2.2
N#Cc1cc(-c2n[nH]c(-c3ccncc3)n2)ccn1 [compound (b), 4-(5-pyridin-4-yl-1H-[1,2,4]triazol-3-yl)pyridine-2-carbonitrile] | no significant difference | – | 4.6±2.0 | 5.3±2.7 | 1.9±1.7 | – | – | –
Cc1nc(-c2ccc(OCC(C)C)c(C#N)c2)sc1C(=O)O [compound (c), 2-[3-cyano-4-(2-methylpropoxy)phenyl]-4-methyl-5-thiazolecarboxylic acid] | no significant difference | – | 5.2±4.3 | 4.1±3.8 | 1.6±1.7 | – | – | –
